Measured values reported in patent US20090088457A1, “Primary Amines as Renin Inhibitors” (Actelion Pharmaceuticals, Ltd., priority 2006, published 2009).

biological target: T1, recombinant human renin (Homo sapiens, UniProt P00797); assay: Primary renin inhibition assay: IC50 in buffer, 384 well MTP (AngI quantified by EIA); assay type: biochemical; conditions: human tetradecapeptide substrate, 37° C. for 3 h
T1 sequence (P00797 67-406): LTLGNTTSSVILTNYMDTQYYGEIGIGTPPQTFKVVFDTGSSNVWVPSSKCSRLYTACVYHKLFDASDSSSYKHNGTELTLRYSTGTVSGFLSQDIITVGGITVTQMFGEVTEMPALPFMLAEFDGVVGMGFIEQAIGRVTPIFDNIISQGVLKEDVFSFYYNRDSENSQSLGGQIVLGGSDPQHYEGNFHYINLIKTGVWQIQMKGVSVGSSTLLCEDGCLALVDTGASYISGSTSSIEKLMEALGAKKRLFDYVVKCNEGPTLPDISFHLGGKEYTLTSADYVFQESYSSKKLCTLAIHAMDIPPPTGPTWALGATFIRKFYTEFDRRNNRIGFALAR
Protocol: 1. Enzyme Immuno Assay (EIA) to Estimate AngI Accumulation and Renin Inhibition
1.1 Preparation of AngI-BSA Conjugate
1.3 mg (1 μmol) of AngI [1-10 (Bachem, H-1680)] and 17 mg (0.26 μmol) of BSA (Fluka, 05475) were dissolved in 4 mL of 0.1M phosphate buffer, pH 7.4, after which 2 mL of a 1:100 dilution of glutaraldehyde in H2O (Sigma G-5882) was added dropwise. The mixture was incubated overnight at 4° C., then dialyzed against 2 liters of 0.9% NaCl, twice for 4 h at rt, followed by dialysis against 2 liters of PBS 1× overnight at rt. The solution was then filtered with a Syringe filter, 0.45 μm (Nalgene, Cat. No. 194-2545). The conjugate can be stored in polypropylene tubes in 0.05% sodium azide at 4° C. for at least 12 months.
1.2 Preparation of BSA-AngI Coated MTP
Microtiter plates (MPT384, MaxiSorp™, Nunc) were incubated overnight at 4° C. with 80 μl of AngI (1-10)/BSA conjugate, diluted 1:100'000 in PBS 1× in a teflon beaker (exact dilution dependent on batch of conjugate), emptied, filled with 90 μl of blocking solution [0.5% BSA (Sigma A-2153) in PBS 1×, 0.02% NaN3], and incubated for at least 2 h at rt, or overnight at 4° C. 96 well MTP (MaxiSorp™, Nunc) were coated with 200 μl conjugate and blocked with 250 μl blocking solution as above, except that the blocking solution contained 3% BSA. The plates can be stored in blocking solution at 4° C. for 1 month.
1.3 AngI-EIA in 384 Well MTP
The AngI (1-10)/BSA coated MTP were washed 3 times with wash buffer (PBS 1×, 0.01% Tween 20) and filled with 75 μl of primary antibody solution (anti-AngI antiserum, pre-diluted 1:10 in horse serum), diluted to a final concentration of 1:100'000 in assay buffer (PBS 1×, 1 mM EDTA, 0.1% BSA, pH 7.4). 5 μl of the renin reaction (or standards in assay buffer) (see below) were added to the primary antibody solution and the plates were incubated overnight at 4° C. After the incubation the plates were washed 3 times with wash buffer and incubated with secondary antibody [anti-rabbit IgG, linked to horseradish peroxidase (Amersham Bioscience, NA 934V), diluted 1:2'000 in wash buffer] for 2 h at rt. The plates were washed 3 times with wash buffer and then incubated for 1 h at rt with substrate solution [1.89 mM ABTS (2.2′-azino-di-(3-ethyl-benzthiazolinsulfonate)] (Roche Diagnostics, 102 946) and 2.36 mM H2O2 [30%, (Fluka, 95300] in substrate buffer (0.1M sodium acetate, 0.05M sodium dihydrogen phosphate, pH 4.2). The OD of the plate was read at 405 nm in a microplate reader (FLUOStar Optima from BMG). The production of AngI during the renin reaction was quantified by comparing the OD of the sample with the OD of a standard curve of AngI(1-10), measured in parallel.
2. Primary Renin Inhibition Assay: IC50 in Buffer, 384 Well MTP
The renin assay was adapted from an assay described before (Fischli W. et al., Hypertension, 1991, 18:22-31) and consists of two steps: in the first step, recombinant human renin is incubated with its substrate (commercial human tetradecapeptide renin substrate) to create the product Angiotensin I (AngI). In the second step, the accumulated AngI is measured by an immunological assay (enzyme immuno assay, EIA). The detailed description of this assay is found below. The EIA is very sensitive and well suited for renin activity measurements in buffer or in plasma. Due to the low concentration of renin used in this assay (2 fmol per assay tube or 10 pM) it is possible to measure inhibitor affinities in this primary assay down to low pM concentration.
Recombinant human renin (3 pg/μl) in assay buffer (PBS 1×, 1 mM EDTA, 0.1% BSA, pH 7.4), human tetradecapeptide (1-14) substrate (Bachem, M-1120) [5 μM in 10 mM HCl], hydroxyquinoline sulfate (Fluka, 55100) [30 mM in H2O] and assay buffer were premixed at 4° C. at a ratio of 100:30:10:145. 47.5 μl per well of this premix was transferred into polypropylene plates (MTP384, Nunc). […]

| Compound | IC50 [nM] |
| --- | --- |
| Cc1cccc(CN(C(=O)C(CN)Cc2cnc(OCCOc3c(F)ccc(F)c3Cl)s2)C2CC2)c1C (racemic) [Example 2, (rac.)-3-Amino-2-{2-[2-(2-chloro-3,6-difluoro-phenoxy)-ethoxy]-thiazol-5-ylmethyl}-N-cyclopropyl-N-(2,3-dimethyl-benzyl)-propionamide] | 7.8 |
| COCCc1ccc(Cl)c(CN(C(=O)[C@@H](CN)Cc2ccc(OCCOc3c(Cl)cc(C)cc3Cl)nc2)C2CC2)c1 [Example 18, (R)-2-Aminomethyl-N-[2-chloro-5-(2-methoxy-ethyl)-benzyl]-N-cyclopropyl-3-{6-[2-(2,6-dichloro-4-methyl-phenoxy)-ethoxy]-pyridin-3-yl}-propionamide] | 0.2 |
| COCCc1ccc(Cl)c(CN(C(=O)[C@@H](CN)Cc2ccc(N3CC[C@@H](Oc4c(Cl)cc(C)cc4Cl)C3)nc2)C2CC2)c1 [Example 20, (R)-2-Aminomethyl-N-[2-chloro-5-(2-methoxy-ethyl)-benzyl]-N-cyclopropyl-3-{6-[(R)-3-(2,6-dichloro-4-methyl-phenoxy)-pyrrolidin-1-yl]-pyridin-3-yl}-propionamide] | 0.5 |
| COCCc1ccc(Cl)c(CN(C(=O)[C@@H](CN)Cc2ccc(N3CC[C@H](Oc4c(Cl)cc(C)cc4Cl)C3)nc2)C2CC2)c1 [Example 22, (R)-2-Aminomethyl-N-[2-chloro-5-(2-methoxy-ethyl)-benzyl]-N-cyclopropyl-3-{6-[(S)-3-(2,6-dichloro-4-methyl-phenoxy)-pyrrolidin-1-yl]-pyridin-3-yl}-propionamide] | 0.3 |
| Mixture of (R)-2-aminomethyl-3-{2-[(R)-3-(3-chloro-2,6-difluoro-phenoxy)-pyrrolidin-1-yl]-thiazol-5-yl}-N-cyclopropyl-N-(2,3-dichloro-benzyl)-propionamide and (S)-2-aminomethyl-3-{2-[(R)-3-(3-chloro-2,6-difluoro-phenoxy)-pyrrolidin-1-yl]-thiazol-5-yl}-N-cyclopropyl-N-(2,3-dichloro-benzyl)-propionamide [Example 14] | 45 |
| Mixture of (R)-2-aminomethyl-N-cyclopropyl-N-(2,3-dichloro-benzyl)-3-{2-[(R)-3-(2,6-dichloro-3,4-dimethyl-phenoxy)-pyrrolidin-1-yl]-thiazol-5-yl}-propionamide and (S)-2-aminomethyl-N-cyclopropyl-N-(2,3-dichloro-benzyl)-3-{2-[(R)-3-(2,6-dichloro-3,4-dimethyl-phenoxy)-pyrrolidin-1-yl]-thiazol-5-yl}-propionamide [Example 11] | 17 |
